Data reported in patent US7244586B2, “DNA molecules encoding ligand-gated ion channels from Drosophila melanogaster” (Merck & Co., Inc., priority 2000, dated 2007).

Tested on: DmLGIC AC15
Conditions: AC15 clone expressed in Xenopus oocyte
Description: Full length cDNA clones corresponding to the selected RT-PCR sequences were used as template for synthesis of in vitro transcribed RNA (Ambion Inc.). The capped cRNA transcripts are synthesized using appropriate oligonucleotide primers and the mMESSAGE mMACHINE in vitro RNA transcription kit from Ambion. Xenopus laevis oocytes were prepared and injected using standard methods as described (Arena et al., 1991, Mol. Pharmacol. 40: 368–374; Arena et al, 1992, Mol. Brain Res. 15: 339–348). Adult female Xenopus laevis were anesthetized with 0.17% tricaine methanesulfonate and the ovaries were surgically removed and placed in a dish consisting of (mM): NaCl 82.5, KCl 2, MgCl2 1, CaCl2 1.8, HEPES 5, adjusted to pH 7.5 with NaOH (OR-2). Ovarian lobes were broken open, rinsed several times, and gently shaken in OR-2 containing 0.2% collagenase (Sigma, Type 1A) for 2–5 hours. When approximately 50% of the follicular layers were removed, Stage V and VI oocytes were selected and placed in media consisting of (mM): NaCl 86, KCl 2, MgCl2 1, CaCl2 1.8, HEPES 5, Na pyruvate 2.5, theophylline 0.5, gentamicin 0.1 adjusted to pH 7.5 with NaOH (ND-96) for 24–48 hours before injection. For most experiments, oocytes were injected with 10 ng of cRNA in 50 nl of RNase free water. Control oocytes were injected with 50 nl of water. […]

NCCc1c[nH]cn1 [histamine]
response of functional single channel protein to addition of histamine: responds to the addition of histamine
